Laboratory results published in patent US9820972B2, “Antiviral compounds highly effective as HCV-NS5A inhibitor” (priority 2013, dated 2017).
Where two headings read alike, the source gives them in different places.

System: GT-1a of NS5A Replicon
Experiment: HCV double reporter gene (Renilla luciferase) replicon assay, GT-1a
Format: cell-based, Hepatitis C virus (HCV)
Description: Antiviral Assay for Inhibition Activity (EC50):
The study is completed by a new constructed double reporter genes replicon assay system, the capacity of viral replicon in infected cell is determined by detecting the reporter gene Renilla luciferase. The relationship of reporter genes, HCV RNA replicon and viral proteins is well linear. 8 gradient concentrations for 2-fold dilution, 3 wells, 3 times repetition and 1 or 2 control drugs are set to finally determine EC50 of compound.
THF was distilled from sodium metal and benzophenone. DCM, pentane and hexane were distilled form calcium hydride. Special raw material and intermediate in the invention were ordered by contract synthesis from Zannan SciTech Co., Let in China, others reagents were purchased from Shanghai reagent company, Aldrich, Acros etc. As intermediates or products during the synthesis is not required for the reaction and other tests the next step, the synthesis is repeated until a sufficient number of times. The invention of the prepared compounds of […] (HCV NS5A) inhibitory activity test was performed by CRO service units such as WuXi AppTec etc.

[1] = Hepatitis C virus, GT1A, GT-1a replicon, class symbols, read-out: EC50 For GT-1a of NS5A Replicon

Row | SMILES | EC50 [1] [pM] | further results
1 | COC(=O)NC(C(=O)N1CC=C[C@H]1c1ncc(-c2ccc(-c3cc4sc(-c5cnc([C@@H]6CCCN6C(=O)[C@H](NC(=O)OC)c6ccccc6)[nH]5)cc4o3)cc2)[nH]1)c1ccccc1 (some centres unmarked) [Compound 6fw] | 1 to 999 | –
2 | CC(C)[C@H](NC(=O)OC1CCCC1)C(=O)N1CCC[C@H]1c1nc(-c2ccc(-c3ccc(-c4cnc([C@@H]5C[C@@H](OC(=O)N6Cc7cc8c(cc7C6)OCO8)CN5C(=O)[C@@H](NC(=O)OC5CCCC5)C(C)C)[nH]4)cc3)cc2)c[nH]1 [Compound 6r] | > 50000 | –
3 | COC(=O)N[C@H](C(=O)N1C[C@H](OC(=O)N2Cc3ccc4c(c3C2)OCO4)CC1c1ncc(-c2ccc(-c3ccc(-c4c[nH]c([C@@H]5CCCN5C(=O)[C@@H](NC(=O)OC)C(C)C)n4)cc3)cc2)[nH]1)C(C)C (some centres unmarked) [Compound 6a] | 1 to 999 | –
4 | COC(=O)N[C@@H](C(=O)N1CC=CC1c1ncc(-c2ccc(-c3csc4c(-c5c[nH]c([C@@H]6CCCN6C(=O)[C@H](NC(=O)OC)c6ccccc6)n5)csc34)cc2)[nH]1)c1ccccc1 (some centres unmarked) [Compound 6fs] | 1 to 999 | –
5 | CC(C)[C@H](NC(=O)OC1CCCC1)C(=O)N1CC=CC1c1ncc(-c2ccc(-c3ccc(-c4c[nH]c([C@@H]5C=CCN5C(=O)[C@@H](NC(=O)OC5CCCC5)C(C)C)n4)cc3)cc2)[nH]1 (some centres unmarked) [Compound 6bf] | > 50000 | –
6 | CNC(=O)NC(C(=O)N1CC=C[C@H]1c1nc(-c2ccc(-c3ccc(-c4c[nH]c(C5CCCN5C(=O)[C@@H](NC(=O)OC)C(C)C)n4)cc3)cc2)c[nH]1)C(C)C (some centres unmarked) [Compound 6cj] | 1 to 999 | –
7 | COC(=O)N[C@H](C(=O)N1CCCC1c1nc(-c2ccc(-c3ccc(-c4c[nH]c([C@@H]5CCCN5C(=O)C5(NC(=O)OC)CC5)n4)cc3)cc2)c[nH]1)C(C)C (some centres unmarked) [Compound 6y] | 1 to 999 | –
8 | COC(=O)N[C@H](C(=O)N1CC2(CC2)C[C@H]1c1nc(-c2ccc3c(c2)C(F)(F)c2cc(-c4ccc5[nH]c([C@@H]6[C@H]7CC[C@H](C7)N6C(=O)[C@@H](NC(=O)OC)C(C)C)nc5c4)ccc2-3)c[nH]1)C(C)C [Ref-2, reference compound] | – | EC50 (Hepatitis C virus, GT1A, read-out: EC50 For GT-1a of NS5A Replicon): 1 to 999 pM; EC50 (Hepatitis C virus, genotype 1a / genotype 6a, read-out: EC50 for Replicon (pM) of GT-1a to GT-6a: 1a): 88 pM
9 | COC(=O)N[C@H](C(=O)N1C[C@@H](OC(=O)N2Cc3ccc4c(c3C2)OCO4)CC1c1nc(-c2ccc(-c3ccc(-c4c[nH]c([C@@H]5COCCN5C(=O)[C@@H](NC(=O)OC)C(C)C)n4)cc3)cc2)c[nH]1)C(C)C (some centres unmarked) [Compound 6ai] | 1 to 999 | –
10 | COC(=O)N[C@H](C(=O)N1CC(OC(=O)N2Cc3cc4c(cc3C2)OCO4)CC1c1nc(-c2ccc3c(c2)oc2cc(-c4c[nH]c([C@@H]5CCCN5C(=O)[C@@H](NC(=O)OC)C(C)C)n4)ccc23)c[nH]1)C(C)C (some centres unmarked) [Compound 6bn] | 1 to 999 | –
11 | COC(=O)N[C@H](C(=O)N1CC(OC(=O)N2Cc3cc4c(cc3C2)OCO4)CC1c1nc(-c2ccc3c(c2)C(F)(F)c2cc(-c4c[nH]c([C@@H]5CCCN5C(=O)[C@@H](NC(=O)OC)C(C)C)n4)ccc2-3)c[nH]1)C(C)C (some centres unmarked) [Compound 6bp] | 1 to 999 | –
12 | COC(=O)N[C@H](C(=O)N1C[C@H](OC(=O)N2Cc3cc4c(cc3C2)OCO4)CC1c1ncc(-c2ccc(-c3ccc(-c4c[nH]c([C@@H]5CCCN5C(=O)[C@@H](NC(=O)OC)C(C)C)n4)cc3)cc2)[nH]1)C(C)C (some centres unmarked) [Compound 6i] | 1 to 999 | –
13 | COC(=O)NC(C(=O)N1CC=C[C@H]1c1ncc(-c2ccc(-c3ccc(-c4cnc([C@@H]5CCCN5C(=O)[C@@H](NC(=O)OC)C(C)C)[nH]4)cc3)cc2)[nH]1)C1CCCCC1 (some centres unmarked) [Compound 6di] | – | EC50 (GT-1a replicon, class symbols, read-out: EC50 For GT-1a of NS5A Replicon): 1 to 999 pM
14 | CC(C)C(NC(=O)N(C)C)C(=O)N1CC=C[C@H]1c1nc(-c2ccc(-c3ccc(-c4c[nH]c(C5CCCN5C(=O)[C@@H](NC(=O)N(C)C)C(C)C)n4)cc3)cc2)c[nH]1 (some centres unmarked) [Compound 6cg] | 1 to 999 | –
15 | COC(=O)N[C@@H](C(=O)N1CC=C[C@H]1c1nc(-c2ccc(-c3ccc(-c4cnc([C@@H]5CC6(CN5C(=O)[C@H](NC(=O)OC)c5ccccc5)OCCO6)[nH]4)cc3)cc2)c[nH]1)c1ccccc1 [Compound 6dv] | 1 to 999 | –
16 | COC(=O)N[C@H](C(=O)N1CC=CC1c1nc(-c2ccc(-c3ccc(-c4c[nH]c([C@@H]5CCCN5C(=O)C5(NC(=O)OC)CCCC5)n4)cc3)cc2)c[nH]1)C(C)C (some centres unmarked) [Compound 6bi] | 1 to 999 | –
